# Tested on: RSV strain A2
# Test: RSV antiviral cytoprotection assay in Hep2 cells (96-well and 384-well format, Cell TiterGlo read-out)
# Format: cell-based, Respiratory Syncytial Virus (RSV)
# Settings: for inhibition at 0.5 µM: HEp-2, 0.5 uM; for inhibition at 1 µM: HEp-2, 1 uM; for EC50: Hep2 cells, class symbols
# [1] = human respiratory syncytial virus, RSV-induced cytopathic effect in Hep2 cells, calculated from fitted dose response curve, normalized to 0% and 100%
# [2] = human respiratory syncytial virus, HEp-2, RSV-induced cytopathic effects
Compound,EC50 [2] [nM],EC50 (RSV-induced cytopathic effects) [nM],inhibition at 0.5 µM [1] [%],inhibition at 1 µM [1] [%],"% inh @ 0.5 uM (0.5 uM, RSV-induced cytopathic effect in Hep2 cells, calculated from fitted dose response curve, normalized to 0% and 100%) [%]"
CNc1ccccc1C(=O)N1CCCC[C@H]1c1cc2[nH]c(C)c(C)c(=O)n2n1 [Compound 7],0.1 to 100,,93,98,
Cc1[nH]c2cc([C@@H]3CCCCN3C(=O)c3ccccc3NC(=O)C3CC3)nn2c(=O)c1C [Compound 14],0.1 to 100,,96,98,
Cc1[nH]c2cc([C@@H]3CCCCN3C(=O)c3ccccc3NS(=O)(=O)N3CCOCC3)nn2c(=O)c1C [Compound 15],101 to 1000,,30,42,
CC(=O)Nc1ccc(F)cc1C(=O)N1CCCC[C@H]1c1cc2[nH]c(C)c(C)c(=O)n2n1 [Compound 16],0.1 to 100,,89,97,
Cc1c[nH]c2cc([C@@H]3CCCCN3C(=O)c3cc(F)ccc3NS(C)(=O)=O)nn2c1=O [Compound 17],101 to 1000,,75,97,
CCc1c(C)[nH]c2cc([C@@H]3CCCCN3C(=O)c3cc(F)ccc3NS(C)(=O)=O)nn2c1=O [Compound 28],101 to 1000,,73,95,
Cc1cccc(NS(C)(=O)=O)c1C(=O)N1CCCC[C@H]1c1cc2[nH]c(C)c(C)c(=O)n2n1 [Compound 32],0.1 to 100,,99,,
Cc1ccc(NS(C)(=O)=O)c(C(=O)N2Cc3ccccc3C[C@H]2c2cc3[nH]c(C)c(C)c(=O)n3n2)c1 [Compound 33],0.1 to 100,,98,,
Cc1ccc(NS(C)(=O)=O)c(C(=O)N2Cc3ccccc3C[C@H]2c2cc3nc(C)c(C)c(N(C)C)n3n2)c1 [Compound 34],0.1 to 100,,91,,
Cc1ccc(NS(C)(=O)=O)c(C(=O)N2Cc3ccccc3C[C@H]2c2cc3nc(C)c(C)cn3n2)c1 [Compound 35],0.1 to 100,,96,,
Cc1ccc(NS(C)(=O)=O)c(C(=O)N2CCCC(C)C2c2cc3nc(C)c(C)cn3n2)c1 (centres unmarked) [Compound 36],0.1 to 100,,90,,
Cc1ccc(NS(C)(=O)=O)c(C(=O)N2CCCC(C)C2c2cc3[nH]c(C)c(C)c(=O)n3n2)c1 (centres unmarked) [Compound 37],,0.1 to 100,,,100
Cc1cc(N2CC(O)C2)nc2cc([C@@H]3CCCCN3C(=O)c3cc(Cl)ccc3NS(C)(=O)=O)nn12 [Compound 40],0.1 to 100,,100,,
Cc1cc(N(C)C)nc2cc([C@@H]3CCCCN3C(=O)c3cc(Cl)ccc3NS(C)(=O)=O)nn12 [Compound 41],0.1 to 100,,95,,
CS(=O)(=O)Nc1ccc(Cl)cc1C(=O)N1CCCC[C@H]1c1cc2nc(N3CCC3)cc(N3CCC(O)CC3)n2n1 [Compound 44],0.1 to 100,,100,,
CS(=O)(=O)Nc1ccc(Cl)cc1C(=O)N1CCCC[C@H]1c1cc2nc(N3CCC3)cc(N3CCNCC3)n2n1 [Compound 45],0.1 to 100,,100,,

Compound,EC50 [2] [nM],EC50 (RSV-induced cytopathic effects) [nM],inhibition at 0.5 µM [1] [%],inhibition at 1 µM [1] [%],"% inh @ 0.5 uM (0.5 uM, RSV-induced cytopathic effect in Hep2 cells, calculated from fitted dose response curve, normalized to 0% and 100%) [%]"
Cc1cc(N2CC[C@@H](O)C2)nc2cc([C@@H]3CCCCN3C(=O)c3cc(Cl)ccc3NS(C)(=O)=O)nn12 [Compound 48],0.1 to 100,,99,,
CS(=O)(=O)Nc1ccc(Cl)cc1C(=O)N1CCCC[C@H]1c1cc2nc(N3CC(O)C3)ccn2n1 [Compound 49],0.1 to 100,,98,,
CS(=O)(=O)Nc1ccc(Cl)cc1C(=O)N1CCCC[C@H]1c1cc2nc(N3CC(O)C3)cc(N3CCNCC3)n2n1 [Compound 50],0.1 to 100,,100,,
CS(=O)(=O)Nc1ccc(Cl)cc1C(=O)N1CCCC[C@H]1c1cc2nc(N3CC[C@@H](O)C3)ccn2n1 [Compound 51],0.1 to 100,,98,,
Cc1cc(N2CC(N)C2)nc2cc([C@@H]3CCCCN3C(=O)c3cc(Cl)ccc3NS(C)(=O)=O)nn12 [Compound 52],0.1 to 100,,100,,
CS(=O)(=O)Nc1ccc(Cl)cc1C(=O)N1CCCC[C@H]1c1cc2nc(N3CC(N)C3)ccn2n1 [Compound 53],0.1 to 100,,98,,
CN(C)CCN(C)c1cc(N2CC(O)C2)nc2cc([C@@H]3CCCCN3C(=O)c3cc(Cl)ccc3NS(C)(=O)=O)nn12 [Compound 55],0.1 to 100,,100,,
CS(=O)(=O)Nc1ccc(Cl)cc1C(=O)N1CCCC[C@H]1c1cc2nc(N3CCC3)cc(N3CC(O)C3)n2n1 [Compound 56],0.1 to 100,,100,,
Cc1ccc(NS(C)(=O)=O)c(C(=O)N2CCCC[C@H]2c2cc3nc(C4CC4)cc(N4CCOCC4)n3n2)c1 [Compound 62],0.1 to 100,,100,,
CS(=O)(=O)Nc1ccc(Cl)cc1C(=O)N1CCCC[C@H]1c1cc2nc(C3CC3)cc(N3CCOCC3)n2n1 [Compound 63],0.1 to 100,,98,,
CS(=O)(=O)Nc1ccc(Cl)cc1C(=O)N1CCCC[C@H]1c1cc2nc(C3CC3)cc(N3CCC3)n2n1 [Compound 64],0.1 to 100,,98,,
Cc1ccc(NS(C)(=O)=O)c(C(=O)N2CCCC[C@H]2c2cc3nc(C4CC4)cc(N4CCC4)n3n2)c1 [Compound 65],0.1 to 100,,100,,
CC(=O)Nc1ccc(Cl)cc1C(=O)N1CCCC[C@H]1c1cc2nc(C3CC3)cc(C)n2n1 [Compound 66],0.1 to 100,,99,,
CS(=O)(=O)Nc1ccc(Cl)cc1C(=O)N1CCCC[C@H]1c1cc2nc(N3CCC3)cc(N3CCOCC3)n2n1 [Compound 67],0.1 to 100,,100,,
CS(=O)(=O)Nc1ccc(Cl)cc1C(=O)N1CCCC[C@H]1c1cc2nc(N3CCCO3)cc(N3CCOCC3)n2n1 [Compound 70],0.1 to 100,,99,,
CS(=O)(=O)Nc1ccc(Cl)cc1C(=O)N1CCCC[C@H]1c1cc2nc(N3CC(F)C3)cc(N3CCOCC3)n2n1 [Compound 72],0.1 to 100,,98,,

# Second part, led by results:
EC50 [2] [nM],EC50 (RSV-induced cytopathic effects) [nM],Compound,inhibition at 0.5 µM [1] [%],inhibition at 1 µM [1] [%],"% inh @ 0.5 uM (0.5 uM, RSV-induced cytopathic effect in Hep2 cells, calculated from fitted dose response curve, normalized to 0% and 100%) [%]"
101 to 1000,,Cc1[nH]c2cc([C@@H]3CCCCN3C(=O)c3ccccc3NC(=O)OC(C)(C)C)nn2c(=O)c1C [Compound 2],36,46,
0.1 to 100,,COc1ccc(NS(C)(=O)=O)c(C(=O)N2CCCC[C@H]2c2cc3[nH]c(C)c(C)c(=O)n3n2)c1 [Compound 10],94,99,
101 to 1000,,Cc1[nH]c2cc([C@@H]3CCCCN3C(=O)c3cc(F)ccc3NS(C)(=O)=O)nn2c(=O)c1F [Compound 19],67,84,
1000 to 10000,,"Cc1[nH]c2cc([C@@H]3COCCN3C(=O)c3ccccc3NS(C)(=O)=O)nn2c(=O)c1C [Compound 20, N-{2-[3-(5,6-Dimethyl-7-oxo-4,7-dihydro-pyrazolo[1,5-a]pyrimidin-2-yl)-morpholine-4-carbonyl]-phenyl}-methanesulfonamide]",7,53,
1000 to 10000,,Cc1[nH]c2cc([C@@H]3C[C@H](C)CCN3C(=O)c3cc(F)ccc3NS(C)(=O)=O)nn2c(=O)c1C [Compound 21],4,10,
0.1 to 100,,Cc1[nH]c2cc([C@@H]3C[C@@H](C)CCN3C(=O)c3cc(F)ccc3NS(C)(=O)=O)nn2c(=O)c1C [Compound 22],95,99,
,101 to 1000,Cc1ccc(NS(C)(=O)=O)c(C(=O)N2CCCC(C)C2c2cc3[nH]c(C)c(C)c(=O)n3n2)c1 (centres unmarked) [Compound 30],99,,
0.1 to 100,,Cc1ccc(NS(C)(=O)=O)c(C(=O)N2CCCC[C@H]2c2cc3nc(C)cc(N(C)C)n3n2)c1 [Compound 39],100,,
0.1 to 100,,Cc1cc(N2CCC2)nc2cc([C@@H]3CCCCN3C(=O)c3cc(Cl)ccc3NS(C)(=O)=O)nn12 [Compound 42],100,,
0.1 to 100,,CS(=O)(=O)Nc1ccc(Cl)cc1C(=O)N1CCCC[C@H]1c1cc2nc(N3CCC3)ccn2n1 [Compound 43],100,,
0.1 to 100,,Cc1cc(N2CCCC2)nc2cc([C@@H]3CCCCN3C(=O)c3cc(Cl)ccc3NS(C)(=O)=O)nn12 [Compound 46],100,,
0.1 to 100,,Cc1cc(N2CC(F)C2)nc2cc([C@@H]3CCCCN3C(=O)c3cc(Cl)ccc3NS(C)(=O)=O)nn12 [Compound 47],100,,
0.1 to 100,,CN1CCN(c2cc(N3CC(O)C3)nc3cc([C@@H]4CCCCN4C(=O)c4cc(Cl)ccc4NS(C)(=O)=O)nn23)CC1 [Compound 54],100,,
0.1 to 100,,CS(=O)(=O)Nc1ccc(Cl)cc1C(=O)N1CCCC[C@H]1c1cc2nc(N3CCC3)cc(N3CCC(O)C3)n2n1 (some centres unmarked) [Compound 57],100,,
0.1 to 100,,CS(=O)(=O)Nc1ccc(Cl)cc1C(=O)N1CCCC[C@H]1c1cc2nc(N3CC(O)C3)cc(N3CC4(COC4)C3)n2n1 [Compound 58],99,,
0.1 to 100,,CS(=O)(=O)Nc1ccc(Cl)cc1C(=O)N1CCCC[C@H]1c1cc2nc(N3CC(O)C3)cc(N3CC(O)C3)n2n1 [Compound 59],100,,
0.1 to 100,,Cc1cc(C2CC2)nc2cc([C@@H]3CCCCN3C(=O)c3cc(Cl)ccc3NS(C)(=O)=O)nn12 [Compound 60],100,,
0.1 to 100,,CS(=O)(=O)Nc1ccc(Cl)cc1C(=O)N1CCCC[C@H]1c1cc2nc(N3CC(N)C3)cc(N3CCOCC3)n2n1 [Compound 68],100,,
0.1 to 100,,CS(=O)(=O)Nc1ccc(Cl)cc1C(=O)N1CCCC[C@H]1c1cc2nc(N3CC(O)C3)cc(N3CCOCC3)n2n1 [Compound 69],100,,
0.1 to 100,,CS(=O)(=O)Nc1ccc(Cl)cc1C(=O)N1CCCC[C@H]1c1cc2nc(N3CC[C@@H](O)C3)cc(N3CCOCC3)n2n1 [Compound 71],95,,
